The values that follow come from patent US20040009534A1, “Protein analysis” (DYAX CORPORATION, priority 2002, published 2004).

As usually defined, the Kd is the equilibrium constant for the complex coming apart.

Like-named read-outs stand apart in the source and are kept apart here.

The target of series [1] is T1, HSA (Homo sapiens, UniProt P02768).
T1 construct: SwissProt entry: P02768 and/or the following mature
The experiment in a line: HSA binding test of analytical peptide-Sepharose affinity columns. Conditions: 1 mg HSA injection; for Total Capacity: 0.35 ml column. On the procedure:
The immobilization reaction was initiated by the addition of diisopropylethylamine to 2% (vol/vol). After 4 hours of slow mixing on a shaker table at room temperature, the reaction was quenched by the addition of an equal volume of 0.5 M hydroxylamine, pH 8, in water. For those peptides with ivDde-protected internal lysines, the hydroxylamine quench treatment also removed the ivDde-protecting group. To allow for complete protecting group removal, the quenched reaction was allowed to incubate overnight at room temperature. Once quenched and deprotected, the immobilized peptide-Sepharose resin was washed at least 3 times with water to remove solvent and unbound peptide. Non-specifically bound peptide was eluted off the resin by washing the resin at least three times in 30 mM phosphoric acid, pH 2. Since the NHS-Sepharose resin surface becomes negatively charged after hydrolysis, an acidic wash neutralizes the surface and removes any peptides bound non-covalently to the surface via electrostatic interactions. After washing, the resin was resuspended in water as a 50% v/v mixture. A 50 μl aliquot was used to determine the ligand density on the resin by quantitative amino acid analysis. Finally, the resin slurry was packed into 0.35 ml OMNIFIT™ glass columns (3 mm×50 mm) for analytical testing.
Each peptide was immobilized at high density on NHS-Sepharose resin using the procedure outlined above. The peptides were immobilized via a C-terminal lysine. […] Each column was tested for HSA binding (1 mg injection) in binding buffer—3 mM sodium phosphate, 0.1% Tween-20 detergent, pH 6.2.
One milliliter of albumin solution was passed through each column (0.35 ml) previously equilibrated in equilibration buffer. The columns were washed with the same equilibration buffer and then eluted with 100 mM Tris, pH 9.1 (flow rate, 0.5 ml/min for all steps). The column chromatography was carried out using a BIO-RAD BIOLOGIC™ monitoring system (Hercules, Calif.) throughout this testing with absorbance monitoring at 280 nm.

The target of series [2] is T2, chicken ovalbumin (Gallus gallus, UniProt P01012).
T2 sequence (P01012 1-386): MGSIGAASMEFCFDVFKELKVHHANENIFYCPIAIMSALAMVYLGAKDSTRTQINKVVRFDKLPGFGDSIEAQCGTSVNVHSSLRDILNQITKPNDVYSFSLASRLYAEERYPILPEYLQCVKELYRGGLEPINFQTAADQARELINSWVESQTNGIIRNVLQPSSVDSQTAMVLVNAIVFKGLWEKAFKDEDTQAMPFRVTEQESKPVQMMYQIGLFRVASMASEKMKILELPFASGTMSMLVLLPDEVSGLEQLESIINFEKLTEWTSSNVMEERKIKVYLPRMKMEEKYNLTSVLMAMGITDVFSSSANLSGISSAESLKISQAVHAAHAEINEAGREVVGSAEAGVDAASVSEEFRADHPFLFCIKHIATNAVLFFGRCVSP
The experiment in a line: Dissociation constants (KD) against a panel of albumins, negative control. Conditions: both sets of buffers. It is filed as binding. An excerpt:
(§1) The binding properties of a ligand that binds a serum protein can be readily assessed using various assay formats. For example, the binding property of a ligand can be measured in solution by fluorescence anisotropy, which provides a convenient and accurate method of determining a dissociation constant (KD) of a binding moiety for a serum albumin from one or more different species. In one such procedure, a binding moiety described herein is labeled with fluorescein. The fluorescein-labeled binding moiety may then be mixed in wells of a multi-well assay plate with various concentrations of a particular species of serum albumin. Fluorescence anisotropy measurements are then carried out using a fluorescence polarization plate reader. The binding interaction between a serum protein and a non-covalently associated compound can be similarly characterized. Other solution measures for studying binding properties include fluorescence resonance energy transfer (FRET) and NMR.
Chicken ovalbumin is not homologous to HSA as determined by sequence alignment analysis.

For series [3], the target named is Goat albumin. The experiment in a line: Dissociation constants (KD) against a panel of albumins. The class given is binding.
Excerpt: as §1

In series [4] the target is T1, HSA. The description is as above. It is filed as binding. The settings on record: phosphate, pH 6.2, O M NaCl.
Excerpt: as §1

Series [5] deals with murine serum albumin (MSA) (Mus musculus, UniProt P07724). Described as above. It is filed as binding.
Excerpt: as §1

Series [6] concerns the target human IgG1. The settings on record: read-out: dissociation constants (KD), cited from earlier work.
Series [7] concerns the target human IgG3. Conditions: human IgG3, pH 5.7; read-out: dissociation constants (KD); cited from earlier work.
For series [8], the system named is Fc protein. The settings on record: from buffer solution and tobacco extract; cited from earlier work.
Setting [9] is: fraction: Elution (100 mM Tris, pH 9.1).

Sequence of human IgG1 (P01857 1-330 isoform P01857-1): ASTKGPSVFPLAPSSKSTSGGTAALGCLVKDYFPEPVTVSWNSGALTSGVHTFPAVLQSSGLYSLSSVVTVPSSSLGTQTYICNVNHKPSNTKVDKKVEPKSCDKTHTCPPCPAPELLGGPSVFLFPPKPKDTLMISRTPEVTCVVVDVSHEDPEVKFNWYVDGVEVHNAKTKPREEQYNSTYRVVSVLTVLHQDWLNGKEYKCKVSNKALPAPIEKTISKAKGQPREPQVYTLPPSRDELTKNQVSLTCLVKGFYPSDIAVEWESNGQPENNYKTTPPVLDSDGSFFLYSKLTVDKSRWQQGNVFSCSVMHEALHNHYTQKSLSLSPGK
T1 sequence (P02768 25-609): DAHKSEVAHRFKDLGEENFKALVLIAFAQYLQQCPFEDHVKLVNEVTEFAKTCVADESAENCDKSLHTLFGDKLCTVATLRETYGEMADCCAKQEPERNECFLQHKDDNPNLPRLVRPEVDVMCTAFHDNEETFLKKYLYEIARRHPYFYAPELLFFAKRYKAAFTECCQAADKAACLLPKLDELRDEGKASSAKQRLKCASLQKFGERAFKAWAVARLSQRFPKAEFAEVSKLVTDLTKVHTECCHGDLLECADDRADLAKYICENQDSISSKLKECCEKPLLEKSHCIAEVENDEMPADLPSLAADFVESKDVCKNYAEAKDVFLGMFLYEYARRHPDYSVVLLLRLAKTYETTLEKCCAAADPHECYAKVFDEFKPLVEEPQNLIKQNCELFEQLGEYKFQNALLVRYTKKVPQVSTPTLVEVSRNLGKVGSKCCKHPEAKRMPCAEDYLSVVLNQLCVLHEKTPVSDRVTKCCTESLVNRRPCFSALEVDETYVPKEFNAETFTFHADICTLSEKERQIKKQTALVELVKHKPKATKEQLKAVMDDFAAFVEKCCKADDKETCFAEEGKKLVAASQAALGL
Sequence of murine serum albumin (MSA) (P07724 25-608): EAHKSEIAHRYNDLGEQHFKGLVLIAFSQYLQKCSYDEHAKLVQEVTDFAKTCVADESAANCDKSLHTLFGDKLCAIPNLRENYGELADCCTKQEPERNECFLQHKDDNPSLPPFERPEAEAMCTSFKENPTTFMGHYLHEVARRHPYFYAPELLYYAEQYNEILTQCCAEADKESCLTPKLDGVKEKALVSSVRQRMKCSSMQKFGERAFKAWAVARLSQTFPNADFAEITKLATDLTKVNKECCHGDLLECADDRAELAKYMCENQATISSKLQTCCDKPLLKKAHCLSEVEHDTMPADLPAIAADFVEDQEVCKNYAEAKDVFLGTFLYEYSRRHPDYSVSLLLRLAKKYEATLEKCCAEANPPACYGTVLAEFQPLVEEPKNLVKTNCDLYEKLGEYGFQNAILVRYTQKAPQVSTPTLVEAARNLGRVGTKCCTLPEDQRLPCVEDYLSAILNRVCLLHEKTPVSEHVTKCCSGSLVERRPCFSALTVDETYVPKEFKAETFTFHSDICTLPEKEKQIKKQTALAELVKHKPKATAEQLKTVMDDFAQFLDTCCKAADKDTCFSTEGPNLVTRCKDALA
Sequence of human IgG3 (P01860 1-377 isoform P01860-1): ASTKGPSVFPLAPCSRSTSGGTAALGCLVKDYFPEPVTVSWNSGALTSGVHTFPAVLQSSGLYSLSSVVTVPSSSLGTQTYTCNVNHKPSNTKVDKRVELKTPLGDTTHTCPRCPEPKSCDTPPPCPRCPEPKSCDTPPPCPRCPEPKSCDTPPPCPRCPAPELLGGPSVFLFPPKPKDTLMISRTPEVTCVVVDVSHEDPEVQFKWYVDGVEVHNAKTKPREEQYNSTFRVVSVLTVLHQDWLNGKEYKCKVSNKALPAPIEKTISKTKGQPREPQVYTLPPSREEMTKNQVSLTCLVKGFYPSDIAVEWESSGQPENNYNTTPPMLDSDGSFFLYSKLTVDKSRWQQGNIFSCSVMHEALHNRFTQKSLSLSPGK

`CC[C@H](C)[C@@H]1NC(=O)[C@H](CCCNC(=N)N)NC(=O)[C@H](CC(=O)O)NC(=O)[C@@H](NC(=O)[C@H](Cc2ccccc2)NC(=O)[C@H](Cc2c[nH]c3ccccc23)NC(=O)[C@H](Cc2ccccc2)NC(=O)[C@H](CC(=O)O)NC(=O)CNC(=O)[C@@H](NC(=O)CNC(=O)[C@H](CCC(=O)O)NC(=O)[C@H](C)NC(C)=O)[C@@H](C)O)CSSC[C@@H](C(=O)N[C@@H](CCC(=O)O)C(=O)N[C@@H](Cc2ccccc2)C(=O)N[C@@H](CC(C)C)C(=O)N[C@@H](CC(=O)O)C(=O)N2CCC[C@H]2C(=O)N[C@@H](CCC(=O)O)C(=O)NCC(=O)NCC(=O)NCC(=O)N[C@@H](CCCCN)C(N)=O)NC(=O)[C@H](CC(C)C)NC(=O)[C@H](Cc2c[nH]cn2)NC(=O)[C@H](CCC(N)=O)NC(=O)[C@@H]2CCCN2C(=O)[C@H](Cc2ccc(O)cc2)NC(=O)[C@H](Cc2c[nH]c3ccccc23)NC(=O)[C@H](C)NC1=O` [DX-236]: in series [1], the “Total Capacity” value was greater than 2.7 mg/mL. The “μg HSA” value in series [1] (setting [9]) is 947 µg; in series [1] (fraction: Flow through, pH 6.2), 0 µg. For the same compound, the “binding to chicken ovalbumin” value in series [2] is given as “neither peptide showed any significant binding”. Further, the equilibrium dissociation constant (Kd) amounted to 23 µM in series [3] (PBS, pH 7.4, […] NaCl) and 1.6 µM in series [3] (phosphate, pH 6.2, O M NaCl).
For `CC[C@H](C)[C@@H]1NC(=O)[C@H](Cc2c[nH]c3ccccc23)NC(=O)[C@H](CO)NC(=O)[C@H](Cc2ccccc2)NC(=O)[C@H](CCCCN)NC(=O)[C@@H](NC(=O)[C@H](CCSC)NC(=O)[C@H](CC(N)=O)NC(=O)[C@H](CCCNC(=N)N)NC(=O)[C@H](CC(=O)O)NC(=O)CNC(=O)[C@@H](NC(=O)CNC(=O)[C@H](CCC(=O)O)NC(=O)[C@H](C)NC(C)=O)[C@@H](C)O)CSSC[C@@H](C(=O)N[C@@H](C)C(=O)N[C@@H](CCCNC(=N)N)C(=O)N[C@@H](C)C(=O)N[C@@H](CC(=O)O)C(=O)N2CCC[C@H]2C(=O)N[C@@H](CCC(=O)O)C(=O)NCCCCCC(=O)N[C@@H](CCCCN)C(N)=O)NC(=O)[C@H](Cc2ccccc2)NC(=O)[C@H](C)NC(=O)[C@@H]2CCCN2C(=O)[C@H](CO)NC(=O)[C@H](CCCNC(=N)N)NC1=O` [DX-321], the “Total Capacity” value in series [1] was greater than 1.1 mg/mL. For the same compound, the “μg HSA” value in series [1] (setting [9]) turned out to be 370 µg; in series [1] (fraction: Flow through, pH 6.2), 554 µg. Besides, the “binding to chicken ovalbumin” value in series [2] is “neither peptide showed any significant binding”. Moreover, the Kd was 83 µM in series [3] (PBS, pH 7.4, […] NaCl); 95 µM in series [3] (phosphate, pH 6.2, O M NaCl); greater than 200 µM in series [5] (PBS, pH 7.4, 0.14 M NaCl); greater than 200 µM in series [5] (phosphate, pH 6.2, O M NaCl). Besides, the KD entry in series [4] was “submicromolar”.
In the case of AGYYWCNYWGLCPDQGTPGPEGGGK [DX254], the Kd in series [6] (IgG1, pH 7.4) is less than 2 µM; in series [6] (human IgG1, pH 5.7) it was less than 0.1 µM; in series [6] (human IgG1, pH 9.3), less than 1 µM.
As for GDDDHCYWFREWFNSECPHGEPGPEGGGK [DX252], in series [7], the Kd is less than 0.1 µM.
Regarding GDDHMCVYTTWGELIWCDNHEPGPEGGGK [DX249], the Kd in series [6] (IgG1, pH 7.4) was less than 0.5 µM; in series [6] (human IgG1, pH 5.7) it was less than 0.1 µM.
Take GDRRACSRDWSGALVWCAGHEPGPEGGGK [DX253]: the “capture efficiency (quantitative binding of Fc protein)” value in series [8] was > 90 % of total load.
